The source of these data is PMC6017062, “Probing the Inhibitor versus Chaperone Properties of sp^2-Iminosugars towards Human β-Glucocerebrosidase: A Picomolar Chaperone for Gaucher Disease” (Molecules : A Journal of Synthetic Chemistry and Natural …, 2018).

Each structure is given as a SMILES string.

One assay addresses T1, N188S/G183W mutant GCase (Homo sapiens, UniProt P04062, N227S).
T1 construct: endogenous in cells; host or cells: skin fibroblasts of N188S/G183W type 3 Gaucher patients
T1 sequence (P04062 40-536 N227S): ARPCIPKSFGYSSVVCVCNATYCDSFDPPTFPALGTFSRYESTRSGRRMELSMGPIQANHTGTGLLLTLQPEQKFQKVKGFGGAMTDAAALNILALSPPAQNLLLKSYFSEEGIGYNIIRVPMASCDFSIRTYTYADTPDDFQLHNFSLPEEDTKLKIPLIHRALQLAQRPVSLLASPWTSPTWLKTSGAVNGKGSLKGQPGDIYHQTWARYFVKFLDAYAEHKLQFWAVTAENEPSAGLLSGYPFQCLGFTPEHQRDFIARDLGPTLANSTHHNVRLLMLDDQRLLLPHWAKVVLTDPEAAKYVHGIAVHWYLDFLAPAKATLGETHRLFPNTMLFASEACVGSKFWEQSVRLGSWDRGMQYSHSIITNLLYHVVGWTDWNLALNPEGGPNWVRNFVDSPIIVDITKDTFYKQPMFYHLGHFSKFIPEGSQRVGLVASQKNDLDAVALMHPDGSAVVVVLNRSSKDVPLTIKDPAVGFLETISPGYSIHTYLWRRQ
In words: Chaperone test in N188S/G183W type 3 Gaucher patient fibroblasts. The class given is cell-based. The text has this:
To test the chaperoning capabilities, Gaucher fibroblasts from patients hosting the adult neuronopathic (type 3) Gaucher disease-associated N188S/G183W mutant GCase were employed. It is worth mentioning that the neuronopathic clinical subtypes of Gaucher disease remain currently at orphan status, given the inability of the recombinant enzyme used in enzyme replacement therapy or the glucosylceramide synthase inhibitor Zavesca® used in substrate reduction therapy to cross the blood–brain barrier. This mutation is located in the catalytic domain (domain III) of GCase and has been previously found to be responsive to sp^2-iminosugar-type chaperones. […] Yet, the activity trend as a function of the chaperone concentration was starkly different between them. Thus, the nonreducing representatives 3 and 4 reached the maximum chaperoning effect at 200 nM and as low as 2 nM concentration, respectively, as compared with 20 and 2 μM for the reducing homologues 1 and 2.
Normal and Gaucher disease patients’ skin fibroblasts were cultured in Dulbecco modified Eagle’s medium (WAKO, Richmond, VA, USA) supplemented with 10% fetal bovine serum (Nichirei Biosci. Inc., Tokyo, Japan) at 37 °C in 5% CO2. For measurement of chaperone activities, fibroblasts were plated onto 35 mm dishes at 50,000 cells per dish. After 24 h incubation, the medium with the indicated concentrations of compound was applied and cells were cultured for 96 h. Then, the lysates in 0.1% Triton-X100/distilled H2O were collected from the cells and assayed for lysosomal GCase as described above. To measure the cytotoxic effect of the compounds, normal human fibroblasts were plated onto 35 mm dishes at 15,000 cells per dish and incubated overnight. Then, the medium was changed with or without compounds. After 24 h incubation, the supernatant of the cells was collected and measured by the lactate dehydrogenase assay (WAKO, Richmond, VA, USA). All the cell lines used were tested for mycoplasma contamination before conducting the chaperone and toxicity assays.

The target of assay [1] is T2, α-galactosidase from green coffee beans (α-Galase) (Coffea arabica, UniProt Q42656).
T2 construct: purchased
In words: Commercial glycosidase inhibition: α-galactosidase from green coffee beans (α-Galase). The class given is biochemical. The conditions noted are these: mean ± SD, three determinations; competitive; n.i. = no inhibition detected at 1 mM. The text has this: (§1) We first evaluated the inhibitory properties of the new nonreducing mono- and bicyclic sp^2-iminosugars 4–15 against a panel of commercial glycosidases that included the α-glucosidases maltase (yeast maltase; α-Glcase1) and isomaltase (α-Glcase2) from Saccharomyces cerevisiae and amyloglucosidase (α-Glcase3) from Aspergillus niger, the β-glucosidases from almonds (β-Glcase1) and bovine liver (β-Glcase2), the α-galactosidase from green coffee beans (α-Galase), the β-galactosidase from Escherichia coli (β-Galase), and the α-mannosidase from Jack bean (α-Manase).
(§2) Inhibition constant (Ki) values were determined by spectrophotometrically measuring the residual hydrolytic activities of the glycosidases against the respective o- (for β-galactosidase from E. coli) or p-nitrophenyl α- or β-D-glycopyranoside (for other glycosidases) in the presence of the iminosugars. Each assay was performed in phosphate buffer or phosphate-citrate buffer (for α- or β-mannosidase and amyloglucosidase) at the optimal pH for the enzymes. The reactions were initiated by addition of the enzyme to a solution of the substrate in the absence or presence of various inhibitor concentrations. The mixture was incubated for 10–30 min at 37 °C or 55 °C (for amyloglucosidase) and the reaction was quenched by addition of 1 M Na2CO3. Reaction times were appropriate to obtain 10–20% conversion of the substrate in order to achieve linear rates. The absorbance of the resulting mixture was determined at 405 nm. Approximate value of Ki was determined from the slope of Dixon plots using a fixed concentration of substrate (around the Km value for the different glycosidases) and various concentrations of inhibitor. Full Ki determinations and enzyme inhibition mode were determined from the slope of Lineweaver–Burk plots and double reciprocal analysis.

Assay [2] addresses T3, α-mannosidase from Jack bean (α-Manase) (Canavalia ensiformis, UniProt C0HJB3).
T3 construct: purchased
T3 sequence (C0HJB3 1-981): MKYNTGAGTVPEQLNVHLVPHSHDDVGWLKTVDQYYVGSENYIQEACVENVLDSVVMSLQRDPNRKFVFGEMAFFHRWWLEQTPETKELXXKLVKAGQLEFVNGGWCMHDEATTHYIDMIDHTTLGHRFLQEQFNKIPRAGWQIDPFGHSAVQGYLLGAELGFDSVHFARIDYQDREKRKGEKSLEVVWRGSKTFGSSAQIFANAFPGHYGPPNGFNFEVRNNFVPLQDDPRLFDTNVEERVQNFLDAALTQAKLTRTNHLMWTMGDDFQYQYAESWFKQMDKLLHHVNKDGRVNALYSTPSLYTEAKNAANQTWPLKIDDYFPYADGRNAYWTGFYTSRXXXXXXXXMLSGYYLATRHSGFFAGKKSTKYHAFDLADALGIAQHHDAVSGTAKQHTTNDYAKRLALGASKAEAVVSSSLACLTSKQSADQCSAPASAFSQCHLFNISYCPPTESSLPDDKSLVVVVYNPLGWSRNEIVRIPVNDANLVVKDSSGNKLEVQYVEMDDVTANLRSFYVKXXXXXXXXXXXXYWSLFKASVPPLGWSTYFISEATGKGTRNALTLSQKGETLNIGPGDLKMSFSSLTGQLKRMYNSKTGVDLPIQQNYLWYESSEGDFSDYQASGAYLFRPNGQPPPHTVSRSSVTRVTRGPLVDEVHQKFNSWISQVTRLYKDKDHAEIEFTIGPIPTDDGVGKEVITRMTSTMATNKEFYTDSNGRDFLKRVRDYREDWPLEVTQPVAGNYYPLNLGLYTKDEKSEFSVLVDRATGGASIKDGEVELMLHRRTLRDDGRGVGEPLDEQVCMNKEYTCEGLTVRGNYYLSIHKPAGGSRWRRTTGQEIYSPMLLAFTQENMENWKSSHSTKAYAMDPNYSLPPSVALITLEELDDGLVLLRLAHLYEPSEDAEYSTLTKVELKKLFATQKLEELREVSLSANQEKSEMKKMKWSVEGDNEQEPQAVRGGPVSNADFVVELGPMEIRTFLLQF
The assay is described as follows: Commercial glycosidase inhibition: α-mannosidase from Jack bean (α-Manase). Conditions: mean ± SD, three determinations; competitive; n.i. = no inhibition detected at 1 mM. In kind it is biochemical.
Text: as §1, §2

The mark [3] stands for this setting: N188S/G183W Gaucher fibroblasts.

T2 sequence (Q42656 16-378): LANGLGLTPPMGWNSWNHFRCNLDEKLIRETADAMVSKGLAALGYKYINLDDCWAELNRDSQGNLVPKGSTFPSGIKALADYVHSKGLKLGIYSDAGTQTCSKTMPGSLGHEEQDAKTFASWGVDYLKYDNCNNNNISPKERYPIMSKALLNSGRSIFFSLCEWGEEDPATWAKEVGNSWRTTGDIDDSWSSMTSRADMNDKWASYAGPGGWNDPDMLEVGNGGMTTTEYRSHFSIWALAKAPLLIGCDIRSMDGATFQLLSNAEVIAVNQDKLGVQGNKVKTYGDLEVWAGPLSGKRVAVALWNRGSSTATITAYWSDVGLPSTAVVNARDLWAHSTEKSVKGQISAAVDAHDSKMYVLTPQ

In the case of `CCCCCCCCN=C1SCC2C(O)C(O)C(O)CN12` (stereo not drawn) [Compound 4, 1-Deoxy-6-thio-5-N,6-S-(N′-octyliminomethylidene)nojirimycin], the “N188S/G183W GCase activity enhancement at 20 pM” value at N188S/G183W mutant GCase (20 pM, patient fibroblasts) is “over 70%”. Also, the “N188S/G183W GCase activity enhancement at 2 nM” value at N188S/G183W mutant GCase (2 nM, patient fibroblasts) is listed as 300%. Moreover, at N188S/G183W mutant GCase (setting [3]), the “concentration of maximum chaperoning effect” value came to 2 nM and the “concentration over which chaperone/inhibitor balance is unfavorable (net decrease in mutant enzyme activity vs control)” value was over 0.2 µM. The “Ki α-Galase” value in assay [1] is “n.i”. Moreover, the “Ki α-Manase” value in assay [2] was “n.i”.
